The values below come from patent US20200239530A1, “COMPOUNDS AND METHODS OF MODULATING PROTEIN DEGRADATION” (Vividion Therapeutics, Inc., priority 2017, published 2020).

Experiment in all cases: Cysteine liganding, probe competition
Type in all cases: binding

The target in experiment [1] is T1, DDX20 Probable ATP-dependent RNA helicase DDX20 (Homo sapiens, UniProt Q9UHI6).
T1 construct: 200 μL of lysate containing 5 mg/ml proteome was treated with 2 μL of 100× compound stock; endogenous in cells
T1 sequence (Q9UHI6 1-824): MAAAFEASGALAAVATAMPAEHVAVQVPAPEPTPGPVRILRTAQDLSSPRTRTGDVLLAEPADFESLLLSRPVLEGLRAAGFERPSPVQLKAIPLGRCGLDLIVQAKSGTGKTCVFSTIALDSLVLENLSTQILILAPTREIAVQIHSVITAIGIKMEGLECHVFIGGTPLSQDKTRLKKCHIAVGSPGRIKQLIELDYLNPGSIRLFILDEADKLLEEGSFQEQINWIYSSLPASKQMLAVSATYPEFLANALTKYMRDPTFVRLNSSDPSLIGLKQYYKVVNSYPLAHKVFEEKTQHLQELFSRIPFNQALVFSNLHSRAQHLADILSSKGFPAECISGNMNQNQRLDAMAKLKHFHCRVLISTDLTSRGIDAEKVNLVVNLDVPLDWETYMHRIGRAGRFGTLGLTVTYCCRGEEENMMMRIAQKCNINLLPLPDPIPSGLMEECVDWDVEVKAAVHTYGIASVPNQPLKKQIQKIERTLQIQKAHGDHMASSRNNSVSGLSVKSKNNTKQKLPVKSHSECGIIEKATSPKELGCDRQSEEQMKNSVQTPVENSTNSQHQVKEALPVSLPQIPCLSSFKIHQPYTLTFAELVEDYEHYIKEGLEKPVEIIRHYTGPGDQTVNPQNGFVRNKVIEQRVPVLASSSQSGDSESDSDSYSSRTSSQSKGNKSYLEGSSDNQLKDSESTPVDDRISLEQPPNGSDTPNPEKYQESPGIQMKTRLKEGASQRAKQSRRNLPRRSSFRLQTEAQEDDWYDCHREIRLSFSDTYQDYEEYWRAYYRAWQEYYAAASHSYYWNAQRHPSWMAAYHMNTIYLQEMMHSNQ
An outline of the steps: (§1)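 Probe competition in native proteome: 5 mg/ml lysate, compound 1 hr 25° C, then desthiobiotin iodoacetamide (10 mM stock) 1 hr 25° C; acetone ppt, urea/DTT reduction, iodoacetamide alkylation, trypsin, streptavidin pull-down.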

Experiment [2] concerns the target T2, DDX60 Probable ATP-dependent RNA helicase DDX60 (Homo sapiens, UniProt Q8IY21).
T2 construct: 200 μL of lysate containing 5 mg/ml proteome was treated with 2 μL of 100× compound stock; endogenous in cells
An outline of the steps:
as §1

The target of another experiment is T3, SNX8 Sorting nexin-8 (Homo sapiens, UniProt Q9Y5X2).
T3 construct: Cells were resuspended in cold PBS on ice and sonicated with a probe sonicator to achieve lysis; endogenous in cells
T3 sequence (Q9Y5X2 1-465): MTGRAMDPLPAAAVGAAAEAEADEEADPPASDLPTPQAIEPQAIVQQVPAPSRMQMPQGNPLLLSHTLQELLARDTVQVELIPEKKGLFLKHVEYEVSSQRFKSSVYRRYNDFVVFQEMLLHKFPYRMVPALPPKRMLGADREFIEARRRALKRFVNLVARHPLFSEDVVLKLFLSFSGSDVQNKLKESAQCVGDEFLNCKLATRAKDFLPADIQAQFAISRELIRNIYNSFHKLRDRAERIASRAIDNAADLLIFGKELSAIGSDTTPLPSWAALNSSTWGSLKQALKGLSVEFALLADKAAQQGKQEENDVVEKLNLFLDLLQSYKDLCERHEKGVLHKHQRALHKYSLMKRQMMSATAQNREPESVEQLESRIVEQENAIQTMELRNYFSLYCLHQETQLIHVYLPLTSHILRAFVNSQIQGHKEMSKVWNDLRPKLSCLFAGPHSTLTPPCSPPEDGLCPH
The method in brief:
as §1

T2 sequence (Q8IY21 whole entry): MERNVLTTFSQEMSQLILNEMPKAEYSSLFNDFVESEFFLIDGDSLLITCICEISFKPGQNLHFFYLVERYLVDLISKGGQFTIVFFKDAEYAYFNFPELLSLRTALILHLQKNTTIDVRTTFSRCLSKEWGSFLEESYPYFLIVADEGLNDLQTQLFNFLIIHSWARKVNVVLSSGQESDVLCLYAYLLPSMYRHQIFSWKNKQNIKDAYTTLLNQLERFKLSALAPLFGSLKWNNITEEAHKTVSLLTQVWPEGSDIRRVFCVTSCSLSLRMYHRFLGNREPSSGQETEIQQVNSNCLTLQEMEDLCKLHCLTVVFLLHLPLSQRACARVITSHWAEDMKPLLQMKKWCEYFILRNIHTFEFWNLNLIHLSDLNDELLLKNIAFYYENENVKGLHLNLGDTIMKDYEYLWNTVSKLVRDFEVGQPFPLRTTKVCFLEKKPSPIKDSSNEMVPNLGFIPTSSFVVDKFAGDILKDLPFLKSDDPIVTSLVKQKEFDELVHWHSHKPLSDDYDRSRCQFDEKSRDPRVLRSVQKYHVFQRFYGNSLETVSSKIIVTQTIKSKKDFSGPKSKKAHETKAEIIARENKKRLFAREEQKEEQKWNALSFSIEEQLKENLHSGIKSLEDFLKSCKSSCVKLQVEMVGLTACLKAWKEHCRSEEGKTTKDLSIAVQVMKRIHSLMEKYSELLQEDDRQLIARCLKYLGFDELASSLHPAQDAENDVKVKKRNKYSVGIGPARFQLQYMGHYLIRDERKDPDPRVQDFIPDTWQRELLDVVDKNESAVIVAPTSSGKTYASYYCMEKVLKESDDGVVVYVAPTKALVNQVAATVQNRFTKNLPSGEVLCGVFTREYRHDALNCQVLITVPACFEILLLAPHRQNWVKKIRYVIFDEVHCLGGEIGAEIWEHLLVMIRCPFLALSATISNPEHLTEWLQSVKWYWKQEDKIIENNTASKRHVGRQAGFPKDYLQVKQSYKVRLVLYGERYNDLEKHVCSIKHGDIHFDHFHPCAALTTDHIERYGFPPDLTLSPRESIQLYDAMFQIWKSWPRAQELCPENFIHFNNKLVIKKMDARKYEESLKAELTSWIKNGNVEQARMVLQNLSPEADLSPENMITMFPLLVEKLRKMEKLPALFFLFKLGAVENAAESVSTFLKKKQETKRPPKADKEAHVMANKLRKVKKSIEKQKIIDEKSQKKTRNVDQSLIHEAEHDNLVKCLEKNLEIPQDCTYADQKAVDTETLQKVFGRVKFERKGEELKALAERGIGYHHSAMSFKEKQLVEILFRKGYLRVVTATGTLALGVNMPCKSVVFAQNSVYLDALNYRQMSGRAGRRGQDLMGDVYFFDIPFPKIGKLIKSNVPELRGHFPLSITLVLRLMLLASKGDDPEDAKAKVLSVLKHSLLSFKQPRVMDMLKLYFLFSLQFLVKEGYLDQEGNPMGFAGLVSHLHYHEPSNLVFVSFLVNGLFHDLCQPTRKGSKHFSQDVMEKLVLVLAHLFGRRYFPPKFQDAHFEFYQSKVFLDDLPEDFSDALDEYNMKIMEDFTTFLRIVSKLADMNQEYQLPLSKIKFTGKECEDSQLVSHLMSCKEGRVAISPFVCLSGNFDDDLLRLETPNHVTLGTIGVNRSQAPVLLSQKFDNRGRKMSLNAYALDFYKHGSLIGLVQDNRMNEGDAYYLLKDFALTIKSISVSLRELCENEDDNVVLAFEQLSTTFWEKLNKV

Regarding `COc1ccc2c(c1)CCCN2C(=O)CCl` [KB02], the Liganded result in experiment [1] (DDX20 Res# 577, uniprot Q9UHI6) was “YES”; in experiment [2] (DDX60 Res# 1051, uniprot Q8IY21) it was “YES”; on SNX8 Sorting nexin-8 (SNX8 Res# 200, uniprot Q9Y5X2), “YES”.
For the compound `O=C(CCl)Nc1cc(C(F)(F)F)cc(C(F)(F)F)c1` [KBO3], in experiment [1] (uniprot Q9UHI6), the “100 Max” value turned out to be 0.85, the 100 ave is listed as −6.7225, the “500 Max” value is 37.31 and the 500 ave amounted to 31.49. Moreover, in experiment [2] (uniprot Q8IY21), the “100 Max” value is reported as 29.56, the 100 ave was 19.7, the “500 Max” value turned out to be 73.07 and the 500 ave amounted to 73.07. Besides, on SNX8 Sorting nexin-8 (uniprot Q9Y5X2), the “100 Max” value is given as 36.21 and the 100 ave is reported as 36.21.
